Measurements reported in patent US8748520B2, “Polycarbonate resin composition containing triazine compound and molded article using the same” (FUJIFILM Corporation, priority 2009, dated 2014).

assay: Measurement of pKa from absorption spectra; type: physicochemical; conditions: in acetonitrile, 70% perchloric acid (solvent: acetic acid) added dropwise; proton adduct at nitrogen atom of triazine ring
Method: <Method for Measuring pKa>
Compound (1) was dissolved in acetonitrile to give an absorbance of 1 and to this solution, 70% perchloric acid (solvent: acetic acid) was added dropwise, thereby varying the pH. At this time, the absorption spectrum of solution was measured and based on the absorbance at λmax, the proportions of a triazine-free form and a proton adduct were calculated at each pH. From the point at which these values became equal, the pKa value was determined. Here, the triazine-free form indicates Compound (1) itself, and the proton adduct indicates a compound resulting from addition of a proton to the nitrogen atom of triazine ring of Compound (1). […] The absorption spectrum was measured using a spectrophotometer, UV-3600 (trade name), manufactured by Shimadzu Corporation, and the pH was measured using a pH meter, HM60G (trade name), manufactured by To a Denpa Kogyo. Incidentally, the absorbance is a value measured at the maximum absorption wavelength of each compound.

Row | Compound | pKa
1 | CCCCCCCCC(CCCCCC)COC(=O)c1ccc(-c2nc(-c3ccccc3O)nc(-c3ccc(OC)cc3O)n2)cc1 (stereo not shown) [Compound (115)] | -5
2 | COC(=O)c1ccc(-c2nc(-c3ccccc3O)nc(-c3ccc(OC)cc3O)n2)cc1 [Compound (104)] | -5
3 | CCCCCCCCCC(CCCCCCC)COC(=O)c1ccc(-c2nc(-c3ccccc3O)nc(-c3ccc(OC)cc3O)n2)cc1 (stereo not shown) [Compound (118)] | -5
4 | COc1ccc(-c2nc(-c3ccc(C(=O)OCC(CCC(C)CC(C)(C)C)C(C)CC(C)(C)C)cc3)nc(-c3ccccc3O)n2)c(O)c1 (stereo not shown) [Compound (117)] | -5

Now from value to compound:

Row | pKa | Compound
5 | -5 | COc1ccc(-c2nc(-c3ccc(C(=O)OCC(CCC(C)CCCC(C)C)C(C)CCCC(C)C)cc3)nc(-c3ccccc3O)n2)c(O)c1 (stereo not shown) [Compound (119)]
6 | -5 | COc1ccc(-c2nc(-c3ccc(C(=O)OCC(CCCCC(C)C)CCC(C)C)cc3)nc(-c3ccccc3O)n2)c(O)c1 (stereo not shown) [Compound (114)]
7 | -5 | CCC(C)CCCCCC(CCCC(C)CC)COC(=O)c1ccc(-c2nc(-c3ccccc3O)nc(-c3ccc(OC)cc3O)n2)cc1 (stereo not shown) [Compound (116)]
